The text below walks through data of patent publication US9295672B2, “Optically active pyrazolylaminoquinazoline, and pharmaceutical compositions and methods of use thereof” (Ambit Biosciences Corp., priority 2010, dated 2016).

Broadly, the IC50 is the concentration that gives 50% inhibition. By Solubility is commonly meant the concentration that dissolves in the medium under given conditions. High values mean a readily soluble substance, low ones a poorly soluble substance.

Molecules are shown by their SMILES.

In one data set the target is phosphodiesterase PDE4. As to the kind of experiment: Inhibition of phosphodiesterase PDE4. Type of data set: biochemical. The note with it: human U937 cells; read-out: IC50 against phosphodiesterase PDE4. As to the method: Human U937 cells were used in this assay. The final DMSO concentration in the assay was about 1%. The assay was pre-incubated at 25° C. for 15 min and then incubated at 25° C. for 20 min in an incubation buffer (50 mM Tris-HCl, pH 7.5, 5 mM MgCl2). The assay was quantitated by measuring the amount of [^3H]adenosine.

Data set [1] can be described thus: Solubility tests of the ketone substrate in solvents. Type of data set: physicochemical. The note with it: 20 ° C. As to the method:
Solubility tests were conducted by adding (4-fluorophenyl)(4-(5-methyl-4H-pyrazol-3-ylamino)quinazolin-2-yl)methanone in small portions to a number of solvents until a suspended solid persisted. A number of solvents were selected for this study based on their suitability as co-solvents for the reaction.

Data set [2] can be described thus: Solubility tests of ketone, alcohol and their mixture in IPA/DMSO/water at 70° C. Type of data set: physicochemical. The note with it: 1.113 g of material at 70° C., IPA 4 mL, Water 0.5 mL. As to the method:
The aim of these experiments was to find the minimum amount of DMSO necessary to dissolve reagents and create homogeneous reaction mixture. One tube contained starting material, the second one a mixture of starting material and product (1/1) to simulate situation when reaction is half complete and the third tube contained product. Experiments were started in 5 mL of IPA/DMSO/water (8/1/1), where none of the mixtures was soluble at 70° C. DMSO was then added dropwise until full solubility could be reached. […] At these conditions, starting material was still partially undissolved. This experiment was used to determine the necessary amounts of DMSO to create a homogeneous reaction mixture (upon keeping the original quantities of IPA and water).

Data set [3] concerns the target human adenosine A3 receptor (Homo sapiens (Human), UniProt P0DMS8). The data set can be described thus: Adenosine A3 receptor radioligand binding assay ([125I] AB-MECA). As to the method: Incubations of a range of concentration of each compound were carried out in duplicates for 1 h at 25° C. in 25 mM HEPES, pH 7.4, 5 mM MgCl2, 1 mM CaCl2, 0.1% BSA, in the presence of 0.5 nM [^125I] AB-MECA. Non-specific binding was determined in the presence of 1 μM IB-MECA.

For data set [4] the following is noted: cynomolgus monkey, in vivo.

human adenosine A3 receptor, sequence (P0DMS8 whole entry): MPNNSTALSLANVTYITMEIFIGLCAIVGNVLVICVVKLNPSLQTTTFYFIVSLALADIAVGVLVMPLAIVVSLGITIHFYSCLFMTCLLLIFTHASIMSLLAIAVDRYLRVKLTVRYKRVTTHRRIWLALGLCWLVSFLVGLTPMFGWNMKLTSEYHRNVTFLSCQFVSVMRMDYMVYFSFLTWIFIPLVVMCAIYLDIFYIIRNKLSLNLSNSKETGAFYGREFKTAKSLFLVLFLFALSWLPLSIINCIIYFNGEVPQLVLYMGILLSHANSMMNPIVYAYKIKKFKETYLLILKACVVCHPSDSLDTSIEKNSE

`Cc1cc(Nc2nc(C(O)c3ccc(F)cc3)nc3ccccc23)n[nH]1` (racemic) [Racemate]: the 50% inhibitory concentration (IC50) on phosphodiesterase PDE4 turned out to be 2530 nM.
For the compound `CC1=NN=C(Nc2nc(C(=O)c3ccc(F)cc3)nc3ccccc23)C1` [(4-fluorophenyl)(4-(5-methyl-4H-pyrazol-3-ylamino)quinazolin-2-yl)methanone], the Solubility was 12 to 149 mg/mL in data set [1] (solvent DMSO); less than 6 mg/mL in data set [1] (solvent EtOAc); less than 7 mg/mL in data set [1] (solvent IPA-H2O (9:1)); less than 9 mg/mL in data set [1] (solvent PhMe); less than 17 mg/mL in data set [1] (solvent THF).
As for `CCO` [Alcohol], the “Result (solubility test)” value is listed as “Not dissolved” in data set [2] (DMSO 0.5 mL), “Dissolved” in data set [2] (DMSO 5.5 mL) and “Dissolved” in data set [2] (DMSO 7.5 mL).
With `Cc1cc(Nc2nc(C(=O)c3ccc(F)cc3)nc3ccccc23)n[nH]1` [Ketone], the “Result (solubility test)” value in data set [2] (DMSO 0.5 mL), in data set [2] (DMSO 5.5 mL) and in data set [2] (DMSO 7.5 mL) was “Not dissolved” in each case.
Regarding `Cc1cc(Nc2nc([C@H](O)c3ccc(F)cc3)nc3ccccc23)n[nH]1` [R-isomer], in data set [3], the “Hill Coefficient” value is recorded as 1.14. Moreover, the “share of the Cmax and AUC values determined for the racemic compound” value in data set [4] (male) was “over 85%”.
As to `Cc1cc(Nc2nc([C@@H](O)c3ccc(F)cc3)nc3ccccc23)n[nH]1` [S-isomer], in data set [3], the “Hill Coefficient” value is reported as 0.811. For the same compound, the “proportion of both enantiomers in plasma” value in data set [4] (po) is “almost equal proportions”.
